According to patent publication US20030144249A1, “Use of organophosphorous compounds for producing a medicament for treating infections” (priority 2000, published 2003):
Values belong to the compound of their own block, whether it stands above or below them.

Key:
Alopecurus myosuroides [1] = experiment: Herbicidal activity, soil, pre-emergence; type: in vivo; conditions: Soil, pre-emergence
Method: (§1) Herbicidal activity is determined using standard methods.
(§2) Substances 1 to 8 listed on page 5 are again investigated.

Avena fatua [2] = experiment: Herbicidal activity, soil, pre-emergence; type: in vivo; conditions: Soil, pre-emergence
Method: as §1, §2

Galium aperine [3] = experiment: Herbicidal activity, soil, pre-emergence; type: in vivo; conditions: Soil, pre-emergence
Method: as §1, §2

Amaranthus retroflexus [4] = experiment: Herbicidal activity, soil, pre-emergence; type: in vivo; conditions: Soil, pre-emergence
Method: as §1, §2

Abutilon theophrasti [5] = experiment: Herbicidal activity, soil, pre-emergence; type: in vivo; conditions: Soil, pre-emergence
Method: as §1, §2

Zea mays [6] = experiment: Herbicidal activity, soil, pre-emergence; type: in vivo; conditions: Soil, pre-emergence
Method: as §1, §2

Cyperus esculentus [7] = experiment: Herbicidal activity, soil, pre-emergence; type: in vivo; conditions: Soil, pre-emergence
Method: as §1, §2

Xanthium strumarium [8] = experiment: Herbicidal activity, soil, pre-emergence; type: in vivo; conditions: Soil, pre-emergence
Method: as §1, §2

Beta vulgaris [9] = experiment: Herbicidal activity, soil, pre-emergence; type: in vivo; conditions: Soil, pre-emergence
Method: as §1, §2

Setaria viridis [10] = experiment: Herbicidal activity, soil, pre-emergence; type: in vivo; conditions: Soil, pre-emergence
Method: as §1, §2

Sinapis arvensis [11] = experiment: Herbicidal activity, soil, pre-emergence; type: in vivo; conditions: Mutarda arvensis, Soil, pre-emergence
Method: as §1, §2

Echinochloa = experiment: Herbicidal activity, water, pre-emergence; type: in vivo; conditions: Water
Method: as §1, §2

Solanum = experiment: Herbicidal activity, water, pre-emergence; type: in vivo; conditions: Water
Method: as §1, §2

Rice = experiment: Herbicidal activity, water, pre-emergence; type: in vivo; conditions: Oryza sativa, Water
Method: as §1, §2

Lepidium = experiment: Herbicidal activity, water, pre-emergence; type: in vivo; conditions: Water
Method: as §1, §2

Plasmodium falciparum = experiment: Antimalarial activity, in vitro culture, [3H]-hypoxanthine incorporation; type: cell-based; conditions: 72 h, asynchronous culture, 48 h + 24 h with [3H]-hypoxanthine, read-out: IC50 (nM) of malaria culture (Plasmodium falciparum)
Method: The antimalarial activity of substances 1 to 8 (see page 5) was determined using in vitro cultures of the causative organism of malaria, Plasmodium falciparum. 200 μl of an asynchronous Plasmodium falciparum culture with a 0.4% blood parasite content and a heamatocrit of 2% were loaded into each of the wells of a 96 well microtitre plate. A serial dilution series of the compounds was then prepared in steps of three between concentrations of 100 and 0.14 μmol l^−1. The plates were incubated at 37° C., 3% CO2 and 5% O2 over a period of 48 hours. 30 μl of medium supplemented with 27 μCi ml^−1 of [^3H]-hypoxanthine were then added to each well. After 24 hours' incubation, the parasites were harvested by filtration through glass fibre filters and the incorporated radioactivity was measured. Inhibition of parasite growth was measured as the percentage inhibition of tritium incorporation. Inhibition of parasite growth was expressed as the percentage inhibition of tritium incorporation relative to a comparison without the substance. The median inhibitory concentration (IC50) of the substance was determined by extrapolating the values.

Alopecurus myosuroides [12] = experiment: Herbicidal activity, soil, post-emergence; type: in vivo; conditions: Soil, post-emergence
Method: as §1, §2

Avena fatua [13] = experiment: Herbicidal activity, soil, post-emergence; type: in vivo; conditions: Soil, post-emergence
Method: as §1, §2

Galium aperine [14] = experiment: Herbicidal activity, soil, post-emergence; type: in vivo; conditions: Soil, post-emergence
Method: as §1, §2

Amaranthus retroflexus [15] = experiment: Herbicidal activity, soil, post-emergence; type: in vivo; conditions: Soil, post-emergence
Method: as §1, §2

Abutilon theophrasti [16] = experiment: Herbicidal activity, soil, post-emergence; type: in vivo; conditions: Soil, post-emergence
Method: as §1, §2

Zea mays [17] = experiment: Herbicidal activity, soil, post-emergence; type: in vivo; conditions: Soil, post-emergence
Method: as §1, §2

Cyperus esculentus [18] = experiment: Herbicidal activity, soil, post-emergence; type: in vivo; conditions: Soil, post-emergence
Method: as §1, §2

Xanthium strumarium [19] = experiment: Herbicidal activity, soil, post-emergence; type: in vivo; conditions: Soil, post-emergence
Method: as §1, §2

Beta vulgaris [20] = experiment: Herbicidal activity, soil, post-emergence; type: in vivo; conditions: Soil, post-emergence
Method: as §1, §2

Setaria viridis [21] = experiment: Herbicidal activity, soil, post-emergence; type: in vivo; conditions: Soil, post-emergence
Method: as §1, §2

Sinapis arvensis [22] = experiment: Herbicidal activity, soil, post-emergence; type: in vivo; conditions: Mutarda arvensis, Soil, post-emergence
Method: as §1, §2

[23] = target: T1, DOXP reductoisomerase from Helicobacter pylori (Helicobacter pylori, UniProt P56139); experiment: DOXP reductoisomerase inhibition (NADPH oxidation at 365 nm); type: biochemical; conditions: recombinant enzyme; 0.3 mM NADPH, 1 mM DOXP, pH 7.5; read-out: IC50 (nM) of DOXP reductoisomerase from Helicobacter pylori
T1 construct: made in house; host or cells: Helicobacter pylori (so in the source)
T1 sequence (P56139 1-368): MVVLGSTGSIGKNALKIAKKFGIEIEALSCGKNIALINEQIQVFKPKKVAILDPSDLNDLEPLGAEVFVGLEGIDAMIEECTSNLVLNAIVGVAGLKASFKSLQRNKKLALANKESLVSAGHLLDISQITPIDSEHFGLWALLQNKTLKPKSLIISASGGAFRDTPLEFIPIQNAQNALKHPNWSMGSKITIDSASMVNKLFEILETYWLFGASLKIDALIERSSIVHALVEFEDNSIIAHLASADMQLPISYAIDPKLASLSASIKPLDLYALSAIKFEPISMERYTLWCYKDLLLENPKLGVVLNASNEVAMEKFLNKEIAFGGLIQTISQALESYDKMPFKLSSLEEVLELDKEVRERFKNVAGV
Method: The DOXP reductoisomerase of Helicobacter pylori was expressed as a recombinant protein in Helicobacter pylori. The activity of DOXP reductoisomerase was determined in a batch containing 100 mM tris-HCl (pH=7.5), 1 mM MnCl2, 0.3 mM NADPH and 1 mM DOXP.
The oxidation of NADPH was here measured at 365 nm in a spectrophotometer. The inhibition studies were performed by measuring the activity of DOXP reductoisomerase in the presence of compounds 1 to 8 (see page 5) at various concentrations between 0. 1 and 100 μmol l^−1.

[24] = 2000 gram/hectare, read-out: Herbicidal activity, Alopecurus myosuroides
[25] = 2000 gram/hectare, read-out: Herbicidal activity, Avena fatua
[26] = 2000 gram/hectare, read-out: Herbicidal activity, Galium aperine
[27] = 2000 gram/hectare, read-out: Herbicidal activity, Amaranthus retroflexus
[28] = 2000 gram/hectare, read-out: Herbicidal activity, Abutilon theophrasti
[29] = 2000 gram/hectare, read-out: Herbicidal activity, Zea mays
[30] = 2000 gram/hectare, read-out: Herbicidal activity, Cyperus esculentus
[31] = 2000 gram/hectare, read-out: Herbicidal activity, Xanthium strumarium
[32] = 2000 gram/hectare, read-out: Herbicidal activity, Beta vulgaris
[33] = 2000 gram/hectare, read-out: Herbicidal activity, Setaria viridis
[34] = 2000 gram/hectare, read-out: Herbicidal activity, Sinapis arvensis

IC50 (Plasmodium falciparum): 420 nM | IC50 [23]: 60 nM
SMILES: CP(C)(=O)CNCN(O)C(=O)c1ccccc1 [Compound 2, N-(N-Benzoyl-N-hydroxyaminomethyl)aminomethyldimethylphosphine oxide]
pest or weed control at 500 g/ha (Alopecurus myosuroides [1]; 500 gram/hectare): 0% | pest or weed control at 500 g/ha (Avena fatua [2]; 500 gram/hectare): 0% | pest or weed control at 500 g/ha (Galium aperine [3]; 500 gram/hectare): 0% | pest or weed control at 500 g/ha (Amaranthus retroflexus [4]; 500 gram/hectare): 0% | pest or weed control at 500 g/ha (Abutilon theophrasti [5]; 500 gram/hectare): 0% | plant injury at 500 g/ha (Zea mays [6]; 500 gram/hectare): 0% | pest or weed control at 500 g/ha (Cyperus esculentus [7]; 500 gram/hectare): 0% | pest or weed control at 500 g/ha (Xanthium strumarium [8]; 500 gram/hectare): 0% | plant injury at 500 g/ha (Beta vulgaris [9]; 500 gram/hectare): 50% | pest or weed control at 500 g/ha (Setaria viridis [10]; 500 gram/hectare): 0% | pest or weed control at 500 g/ha (Sinapis arvensis [11]; 500 gram/hectare): 60% | pest or weed control at 1000 g/ha (Echinochloa; 1000 gram/hectare): 0% | pest or weed control at 1000 g/ha (Solanum; 1000 gram/hectare): 0% | plant injury at 1000 g/ha (Rice; 1000 gram/hectare): 30% | pest or weed control at 1000 g/ha (Lepidium; 1000 gram/hectare): 30% | pest or weed control at 500 g/ha (Alopecurus myosuroides [12]; 500 gram/hectare): 60% | pest or weed control at 500 g/ha (Avena fatua [13]; 500 gram/hectare): 70% | pest or weed control at 500 g/ha (Galium aperine [14]; 500 gram/hectare): 60% | pest or weed control at 500 g/ha (Amaranthus retroflexus [15]; 500 gram/hectare): 0% | pest or weed control at 500 g/ha (Abutilon theophrasti [16]; 500 gram/hectare): 50% | plant injury at 500 g/ha (Zea mays [17]; 500 gram/hectare): 70% | pest or weed control at 500 g/ha (Cyperus esculentus [18]; 500 gram/hectare): 0% | pest or weed control at 500 g/ha (Xanthium strumarium [19]; 500 gram/hectare): 50% | plant injury at 500 g/ha (Beta vulgaris [20]; 500 gram/hectare): 50% | pest or weed control at 500 g/ha (Setaria viridis [21]; 500 gram/hectare): 90% | pest or weed control at 500 g/ha (Sinapis arvensis [22]; 500 gram/hectare): 80%

IC50 (Plasmodium falciparum): 1100 nM | IC50 [23]: 300 nM
SMILES: CN(CC(=O)P(C)(C)=O)CN(O)C(=O)C(F)(F)F [Compound 7, 2-(N-(N-Trifluoracetyl-N-hydroxyaminomethyl)-N-methyl)amino-1-oxoethyldimethylphosphine oxide]
pest or weed control at 2000 g/ha (Alopecurus myosuroides [1]; [24]): 30% | pest or weed control at 2000 g/ha (Avena fatua [2]; [25]): 30% | pest or weed control at 2000 g/ha (Galium aperine [3]; [26]): 0% | pest or weed control at 2000 g/ha (Amaranthus retroflexus [4]; [27]): 20% | pest or weed control at 2000 g/ha (Abutilon theophrasti [5]; [28]): 0% | plant injury at 2000 g/ha (Zea mays [6]; [29]): 30% | pest or weed control at 2000 g/ha (Cyperus esculentus [7]; [30]): 0% | pest or weed control at 2000 g/ha (Xanthium strumarium [8]; [31]): 0% | plant injury at 2000 g/ha (Beta vulgaris [9]; [32]): 70% | pest or weed control at 2000 g/ha (Setaria viridis [10]; [33]): 0% | pest or weed control at 2000 g/ha (Sinapis arvensis [11]; [34]): 30% | pest or weed control at 4000 g/ha (Echinochloa; 4000 gram/hectare, read-out: Herbicidal activity, Echinochloa): 40% | pest or weed control at 4000 g/ha (Solanum; 4000 gram/hectare, read-out: Herbicidal activity, Solanum): 30% | plant injury at 4000 g/ha (Rice; 4000 gram/hectare, read-out: Herbicidal activity, Rice): 30% | pest or weed control at 4000 g/ha (Lepidium; 4000 gram/hectare, read-out: Herbicidal activity, Lepidium): 40% | pest or weed control at 2000 g/ha (Alopecurus myosuroides [12]; [24]): 80% | pest or weed control at 2000 g/ha (Avena fatua [13]; [25]): 80% | pest or weed control at 2000 g/ha (Galium aperine [14]; [26]): 70% | pest or weed control at 2000 g/ha (Amaranthus retroflexus [15]; [27]): 50% | pest or weed control at 2000 g/ha (Abutilon theophrasti [16]; [28]): 50% | plant injury at 2000 g/ha (Zea mays [17]; [29]): 70% | pest or weed control at 2000 g/ha (Cyperus esculentus [18]; [30]): 0% | pest or weed control at 2000 g/ha (Xanthium strumarium [19]; [31]): 90% | plant injury at 2000 g/ha (Beta vulgaris [20]; [32]): 50% | pest or weed control at 2000 g/ha (Setaria viridis [21]; [33]): 90% | pest or weed control at 2000 g/ha (Sinapis arvensis [22]; [34]): 70%
